ChEMBL document CHEMBL1201862, “PubChem BioAssay data set” (2004)
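Interpolation was linear, between the two tested concentrations surrounding the appropriate level; five concentrations were tested over 48 hours in 96-well plates. GI50 = concentration required for 50% inhibition of growth.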 The source made the active and inactive calls. Rule as the data show it: active = GI50 up to about 1.1 µM and inactive = higher.

How the values were obtained:
Experiment in all cases: growth of human tumour cells (NCI), 48 h
NCI/ADR-RES = system: NCI/ADR-RES
SN12C = system: SN12C
UACC-257 = system: UACC-257
UO-31 = system: UO-31
LOX IMVI = system: LOX IMVI
UACC-62 = system: UACC-62
HCT-15 = system: HCT-15
SNB-19 = system: SNB-19
KM12 = system: KM12
MCF7 = system: MCF7
IGROV-1 = system: IGROV-1
HCT-116 = system: HCT-116
HT-29 = system: HT-29
SW-620 = system: SW-620
OVCAR-8 = system: OVCAR-8
SF-295 = system: SF-295
MDA-N = system: MDA-N
HOP-62 = system: HOP-62
M14 = system: M14
SNB-75 = system: SNB-75

| Structure (SMILES) | GI50 (NCI/ADR-RES) | GI50 (SN12C) | GI50 (UACC-257) | GI50 (UO-31) | GI50 (LOX IMVI) | GI50 (UACC-62) | GI50 (HCT-15) | GI50 (SNB-19) | GI50 (KM12) | GI50 (MCF7) | GI50 (IGROV-1) | GI50 (HCT-116) | GI50 (HT-29) | GI50 (SW-620) | GI50 (OVCAR-8) | GI50 (SF-295) | GI50 (MDA-N) | GI50 (HOP-62) | GI50 (M14) | GI50 (SNB-75) |
| --- | --- | --- | --- | --- | --- | --- | --- | --- | --- | --- | --- | --- | --- | --- | --- | --- | --- | --- | --- | --- |
| COC(COC(=O)N1CCN(C=O)CC1)C1=C(N2CC2)C(=O)C(C)=C(N2CC2)C1=O (stereo not drawn) | 5.57 µM (inactive) | 0.0336 µM (active) | 0.309 µM (active) | 0.486 µM (active) | 0.0664 µM (active) | 0.169 µM (active) | 1.73 µM | 0.437 µM (active) | 0.551 µM (active) | 0.0313 µM (active) | 0.271 µM (active) | 0.157 µM (active) | 0.189 µM (active) | 0.141 µM (active) | 0.17 µM (active) | 1.22 µM (inactive) | 0.248 µM (active) | 0.191 µM (active) | 0.202 µM (active) | – |
| C/C=C/CC(C(=O)OCC)(N(C)C(=O)OC(C)(C)C)S(=O)(=O)c1ccc(C)cc1 (stereo not drawn) | 69.2 µM (inactive) | > 100 µM (inactive) | > 100 µM (inactive) | > 100 µM (inactive) | > 100 µM (inactive) | 61.9 µM (inactive) | 61.9 µM | > 100 µM (inactive) | 48.2 µM (inactive) | 53.7 µM (inactive) | 68.7 µM (inactive) | 70.6 µM (inactive) | 39.4 µM (inactive) | 56.5 µM (inactive) | > 100 µM (inactive) | 63.7 µM (inactive) | 22.1 µM (inactive) | > 100 µM (inactive) | 50.6 µM (inactive) | – |
| COc1ccc(N2C(=O)/C(=C/c3ccc(N(CCC#N)CCC#N)cc3)N=C2c2ccccc2)c(OC)c1 | 52.8 µM (inactive) | > 100 µM (inactive) | > 100 µM (inactive) | > 100 µM (inactive) | – | > 100 µM (inactive) | 40.2 µM | > 100 µM (inactive) | 35.5 µM (inactive) | 61.7 µM (inactive) | > 100 µM (inactive) | 69.2 µM (inactive) | > 100 µM (inactive) | > 100 µM (inactive) | 28.5 µM (inactive) | > 100 µM (inactive) | > 100 µM (inactive) | – | > 100 µM (inactive) | 89.5 µM (inactive) |
| O=c1[nH]n(Cc2ccccc2)c2ccc([N+](=O)[O-])cc12 | 34.8 µM (inactive) | 49.5 µM (inactive) | 60.8 µM (inactive) | 45.5 µM (inactive) | 88.7 µM (inactive) | > 100 µM (inactive) | 56.1 µM | > 100 µM (inactive) | 64.4 µM (inactive) | 28.2 µM (inactive) | 84.3 µM (inactive) | 49.4 µM (inactive) | 41.2 µM (inactive) | 48.9 µM (inactive) | > 100 µM (inactive) | 66.8 µM (inactive) | 29.2 µM (inactive) | > 100 µM (inactive) | 46.2 µM (inactive) | – |
| Cc1c(-c2ccccc2)[nH]c2cn[nH]c(=O)c12 | 73.8 µM (inactive) | – | > 100 µM (inactive) | 80 µM (inactive) | 70.6 µM (inactive) | 59.2 µM (inactive) | 55.3 µM | > 100 µM (inactive) | 83.2 µM (inactive) | 45.1 µM (inactive) | > 100 µM (inactive) | > 100 µM (inactive) | > 100 µM (inactive) | > 100 µM (inactive) | > 100 µM (inactive) | 41 µM (inactive) | > 100 µM (inactive) | 50.9 µM (inactive) | > 100 µM (inactive) | – |
